Assays:
CCKA = biological target: T1, CCKA (Cavia porcellus, UniProt Q63931); test: CCKA binding assay in guinea-pig pancreas membranes; conditions: [125I]-CCK8(S) 200pM; for CCKA pKi: containing 0.375 µM PD134,308; for Ki: containing 0.375 µM PD134,308, read-out: CCKA pKi (converted)
T1 construct: The pancreatata were removed from male guinea-pigs (200-300g; Dunkin Hartley); from tissue; host or cells: pancreas membranes of male Dunkin Hartley guinea-pigs
T1 sequence (Q63931 1-430): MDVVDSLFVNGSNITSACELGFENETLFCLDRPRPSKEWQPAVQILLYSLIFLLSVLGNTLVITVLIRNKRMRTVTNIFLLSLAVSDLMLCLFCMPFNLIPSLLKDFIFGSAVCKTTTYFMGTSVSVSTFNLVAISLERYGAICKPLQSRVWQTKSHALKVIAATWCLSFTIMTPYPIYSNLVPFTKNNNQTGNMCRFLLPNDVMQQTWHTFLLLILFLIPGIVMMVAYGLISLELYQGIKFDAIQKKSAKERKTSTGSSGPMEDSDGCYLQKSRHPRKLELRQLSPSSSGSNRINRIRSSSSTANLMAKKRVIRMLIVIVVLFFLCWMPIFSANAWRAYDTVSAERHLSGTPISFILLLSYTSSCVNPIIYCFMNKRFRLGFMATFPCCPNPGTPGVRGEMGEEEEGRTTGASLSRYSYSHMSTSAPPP
In short: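 Competition binding of [125I]-CCK8(S) (200 pM in the added solution) to male guinea-pig pancreas membranes (1 mg/ml wet weight) containing 0.375 µM PD134,308, in HEPES buffer pH 7.2. Incubated 150 min at 21 ± 3°, then filtered. Bound radioactivity gamma-counted; non-specific binding defined with 100nM L-364,718.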

gastrin = biological target: T2, gastrin (Rattus norvegicus, UniProt P30553); test: gastrin antagonist activity in an immature rat stomach assay; conditions: isolated immature rat stomach, cumulative pentagastrin dose-response curves, acid secretion; for Kb: read-out: Gastrin pKB (converted)
T2 construct: The stomach was excised and flushed with ca. 1 ml of unbuffered physiological saline solution; from tissue; host or cells: isolated whole stomach of immature rats (33-50 g, ca. 21 days old)
T2 sequence (P30553 1-452): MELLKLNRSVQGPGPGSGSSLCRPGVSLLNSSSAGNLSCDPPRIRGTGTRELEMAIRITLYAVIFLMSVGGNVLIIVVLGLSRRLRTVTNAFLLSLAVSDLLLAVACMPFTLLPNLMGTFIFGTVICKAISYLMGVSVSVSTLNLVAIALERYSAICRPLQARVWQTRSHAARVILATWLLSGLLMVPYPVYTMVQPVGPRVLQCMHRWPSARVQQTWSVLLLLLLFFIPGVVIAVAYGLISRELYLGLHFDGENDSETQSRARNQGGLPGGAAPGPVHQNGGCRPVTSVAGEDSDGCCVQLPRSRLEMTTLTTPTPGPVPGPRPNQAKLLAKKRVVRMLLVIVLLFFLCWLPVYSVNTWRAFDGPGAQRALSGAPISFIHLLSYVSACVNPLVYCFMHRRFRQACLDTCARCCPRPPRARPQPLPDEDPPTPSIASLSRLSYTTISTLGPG
In short: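 Isolated stomachs from immature rats (33-50 g, ca. 21 days) perfused at 1 ml min^-1 with O2-gassed unbuffered saline, perfusate pH monitored by electrode. After 120 min stabilisation, compounds added to serosal bath; cumulative pentagastrin dose-response curves begun 60 min later.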

CCKB receptor = biological target: T3, CCKB receptor (Mus musculus, UniProt P56481); test: radioligand binding assay at the CCKB receptor in mouse cortical membranes; conditions: [125I]-CCK8S 200pM, 150 min at 21 ± 3°C; for Ki: read-out: CCKB pKi (converted)
T3 construct: The whole brains from male mice (CD1 22-25g; Charles River) were removed; from tissue; host or cells: cerebral cortex membranes of male CD1 mice
T3 sequence (P56481 1-453): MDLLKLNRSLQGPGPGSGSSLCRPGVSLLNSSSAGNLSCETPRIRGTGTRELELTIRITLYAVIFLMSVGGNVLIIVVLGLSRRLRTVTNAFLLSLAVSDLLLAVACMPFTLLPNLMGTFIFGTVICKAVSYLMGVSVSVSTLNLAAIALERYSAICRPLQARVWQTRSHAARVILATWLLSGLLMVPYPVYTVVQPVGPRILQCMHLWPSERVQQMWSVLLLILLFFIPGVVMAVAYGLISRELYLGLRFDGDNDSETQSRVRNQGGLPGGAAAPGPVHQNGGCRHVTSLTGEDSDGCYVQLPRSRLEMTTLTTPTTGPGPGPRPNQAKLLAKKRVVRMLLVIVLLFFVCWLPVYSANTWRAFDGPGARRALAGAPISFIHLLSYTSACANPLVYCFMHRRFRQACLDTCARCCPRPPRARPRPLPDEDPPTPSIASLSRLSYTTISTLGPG
In short: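 Radioligand binding was quantified by gamma counting after filtration through GF/B filters and cold 50 mM Tris-HCl (pH 7.4) washes. Tissue source was male CD1 mouse cortex, homogenised and twice centrifuged, then resuspended at 2 mg.ml^-1 original wet weight in pH 7.2 HEPES buffer containing bacitracin.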

| SMILES | CCKA pKi (CCKA) | Kb (gastrin) [µM] | Ki (CCKB receptor) [µM] | Ki (CCKA) [µM] | Gastrin pKB (gastrin; 60 min) | CCKB pKi (CCKB receptor) |
| --- | --- | --- | --- | --- | --- | --- |
| O=C(O)c1cc(NC(=O)[C@H](Cc2ccccc2)NC(=O)C2C3c4ccccc4C(c4ccccc43)C2C(=O)NCc2ccc3ccccc3c2)cc(C(=O)O)c1 (single isomer, unassigned) [Example 64, cis-7-(1S-(3,5-dicarboxyphenylaminocarbonyl) -2-phenylethylaminocarbcnyl)-8-(2-naphthalenemethylaminocarbonyl)-2,3,5,6-dibenzobicyclo [2.2.2]octane] | 5.8 | 0.316 | 0.00501 |  |  |  |
| O=C(O)c1cccc(NC(=O)[C@H](Cc2ccccc2)NC(=O)C2C3c4ccccc4C(c4ccccc43)C2C(=O)NCC23CC4CC(CC(C4)C2)C3)c1 (single isomer, unassigned) [Example 40, cis-7-(1S-(3-carboxyphenylaminocarbonyl)-2-phenylethylaminocarbonyl) -8-(1-adamantanemethylaminocarbonyl)-2,3,5,6-dibenzobicyclo[2.2.2]octane] |  | 2 | 0.0158 | 1 |  |  |
| O=C(O)c1cc(NC(=O)[C@H](Cc2ccccc2)NC(=O)C2C3c4ccccc4C(c4ccccc43)C2C(=O)NCc2cccc3ccccc23)cc(C(=O)O)c1 (single isomer, unassigned) [Example 32, cis-7-(1S-(3,5-dicarboxyphenylaminocarbonyl)-2-phenylethylaminocarbonyl)-8-(1-naphthalenemethylaminocarbonyl) -2,3,5,6-dibenzobicyclo [2.2.2]octane] |  | 0.0251 | 0.01 | 0.501 |  |  |
| O=C(O)c1cc(NC(=O)[C@H](Cc2ccccc2)NC(=O)C2C3c4ccccc4C(c4ccccc43)C2C(=O)NCc2ccc(Cl)c(Cl)c2)cc(C(=O)O)c1 (single isomer, unassigned) [Example 35, cis-7-(1S-(3,5-dicarboxyphenylaminocarbonyl)-2-phenylethylaminocarbonyl) -8-(3,4-dichlorophenyl-methylaminocarbonyl) -2,3,5,6-dibenzobicyclo[2.2.2]octane] |  | 1 | 0.158 | 1.26 |  |  |
| O=C(O)c1ccc(NC(=O)[C@H](Cc2ccccc2)NC(=O)C2C3c4ccccc4C(c4ccccc43)C2C(=O)NCC23CC4CC(CC(C4)C2)C3)cc1C(=O)O (stereo partly drawn) [Example 43, cis-7-(1S-(3,4-dicarboxyphenylaminocarbonyl)-2-phenylethylaminocarbonyl)-8-(1-adamantanemethylaminocarbonyl)-2,3,5,6-dibenzobicyclo [2.2.2]octane] |  | 0.794 | 0.1 | 1.26 |  |  |
| O=C(O)c1cc(NC(=O)[C@H](Cc2ccccc2)NC(=O)C2C3c4ccccc4C(c4ccccc43)C2C(=O)NCC2CCCCC2)cc(C(=O)O)c1 (single isomer, unassigned) [Example 31, cis-7-(1S-(3,5-dicarboxyphenylaminocarbonyl) -2-phenylethylaminocarbonyl)-8-(cyclohexanemethylaminocarbonyl) -2,3,5,6-dibenzobicyclo[2.2.2]octane] |  | 0.251 | 0.2 | 1.26 |  |  |
| O=C(O)c1cc(NC(=O)[C@H](CCc2ccccc2)NC(=O)C2C3c4ccccc4C(c4ccccc43)C2C(=O)NCC23CC4CC(CC(C4)C2)C3)cc(C(=O)O)c1 (stereo partly drawn) [Example 36, cis-7-(1S-(3,5-dicarboxyphenylaminocarbonyl) -3-phenylpropylaminocarbonyl) -8-(1-adamantanemethyl-aminocarbonyl) -2,3,5,6-dibenzobicyclo[2.2.2]octane] |  | 0.0316 | 0.0631 | 2 |  |  |
| O=C(O)c1cc(CNC(=O)[C@H](Cc2ccccc2)NC(=O)C2C3c4ccccc4C(c4ccccc43)C2C(=O)NCC23CC4CC(CC(C4)C2)C3)cc(C(=O)O)c1 (single isomer, unassigned) [Example 61, cis-7-(1S-(3,5-dicarboxyphenylmethylaminocarbonyl) -2-phenylethylaminocarbonyl) -8-(1-adamantanemethylaminocarbonyl)-2,3,5,6-dibenzobicyclo [2.2.2] octane] |  | 0.0398 | 0.0316 | 2.51 |  |  |

Second part, the compound after the results:

| CCKA pKi (CCKA) | Kb (gastrin) [µM] | Ki (CCKB receptor) [µM] | Ki (CCKA) [µM] | Gastrin pKB (gastrin; 60 min) | CCKB pKi (CCKB receptor) | SMILES |
| --- | --- | --- | --- | --- | --- | --- |
| 6.1 |  |  |  | 6.9 | 6.5 | O=C(O)c1cc(NC(=O)[C@H](Cc2ccc3ccccc3c2)NC(=O)C2C3c4ccccc4C(c4ccccc43)C2C(=O)NCC23CC4CC(CC(C4)C2)C3)cc(C(=O)O)c1 (single isomer, unassigned) [Example 14, cis-7-(1S-(3,5-dicarboxyphenylaminocarbonyl)-2-(2-naphthyl) -ethylaminocarbonyl)-8-(1-adamantanemethylaminocarbonyl)-2,3,5,6-dibenzobicyclo[2.2.2]octane] |
|  | 0.00794 | 0.0126 | 1 |  |  | O=C(O)c1cc(NC(=O)[C@H](Cc2ccc(F)cc2)NC(=O)C2C3c4ccccc4C(c4ccccc43)C2C(=O)NCC23CC4CC(CC(C4)C2)C3)cc(C(=O)O)c1 (single isomer, unassigned) [Example 8, cis-7-(1S-(3,5-dicarboxyphenylaminocarbonyl) -2-(4-fluorophenyl)-ethylaminocarbonyl)-8-(1-adamantane-methylaminocarbonyl)-2,3,5,6-dibenzobicyclo[2.2.2]octane] |
|  | 0.0251 | 0.01 | 0.398 |  |  | O=C(O)c1cc(NC(=O)[C@H](Cc2cccc(F)c2)NC(=O)C2C3c4ccccc4C(c4ccccc43)C2C(=O)NCC23CC4CC(CC(C4)C2)C3)cc(C(=O)O)c1 (single isomer, unassigned) [Example 19, cis-7-(1S-(3,5-dicarboxyphenylaminocarbonyl)-2-(3-fluorophenyl)ethylaminocarbonyl)-8-(1-adamantanemethylaminocarbonyl) -2,3,5,6-dibenzobicyclo[2.2.2]octane] |
|  | 0.0631 | 0.1 | 2 |  |  | O=C(O)c1cc(NC(=O)[C@@H](CCc2ccccc2)NC(=O)C2C3c4ccccc4C(c4ccccc43)C2C(=O)NCC23CC4CC(CC(C4)C2)C3)cc(C(=O)O)c1 (stereo partly drawn) [Example 37, cis-7-(1R-(3,5-dicarboxyphenylaminocarbonyl) -3-phenylpropylaminocarbonyl)-8-(1-adamintanemethylaminocarbonyl)-2,3,5,6-dibenzobicyclo[2.2.2] octane] |
|  | 0.0631 | 0.1 | 1.58 |  |  | COc1ccc(C[C@H](NC(=O)C2C3c4ccccc4C(c4ccccc43)C2C(=O)NCC23CC4CC(CC(C4)C2)C3)C(=O)Nc2cc(C(=O)O)cc(C(=O)O)c2)cc1 (single isomer, unassigned) [Example 12, cis-7-(1S-(3,5-dicarboxyphenylaminocarbonyl)-2-(4-methoxyphenyl) -ethylaminocarbonyl)-8-(1-adamantanemethylaminocarbonyl) -2,3,5,6-dibenzobicyclo[2.2.2]octane] |

Source: patent EP0719251B1, “BICYCLO (2.2.2) OCTANE DERIVATIVES CHOLECYSTOKININ AND/OR GASTRIN ANTAGONISTS” (JAMES BLACK FOUNDATION LIMITED, priority 1993, dated 1995)
